Data from patent US11702422B2, “Imidazopyridazines as modulators of IL-17” (Janssen Pharmaceutica NV, priority 2020, dated 2023).

Key:
[1] = molecular target: IL-17A(FLAG-Tagged): IL-17RA(His-Tagged) (Homo sapiens, UniProt Q16552, K93Q); assay: IL-17A(FLAG-Tagged): IL-17RA(His-Tagged) Binding Disruption Eu-HTRF Assay; conditions: IL-17A/IL-17RA binding disruption, simple average if tested more than once
Outline: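 IC50 comes from a one-site competition fit of the HTRF 665/620 nm ratio. Compound dilutions (2-fold, 22 points) were held 1 h rt with FLAG-tagged IL-17A dimer, then His-tagged IL-17RA plus Eu-cryptate anti-FLAG and D2 anti-His antibodies were added for 2 h rt.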

[2] = test system: IL-17A-induced G-CSF production in human normal keratinocyte (NHK); assay: NHK Assay: IL-17A-induced G-CSF production in human normal keratinocytes; format: cell-based; conditions: Homo sapiens, Keratinocyte, 24 h, adult normal human keratinocytes, IL-17A 5 ng/mL, simple average if tested more than once
Outline: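 Compound is first combined with recombinant human IL-17A for 1 h at rt, and the mix is added to adult normal human keratinocytes so that IL-17A is 5 ng/mL. After 24 h at 37° C in 5% FBS, G-CSF released into the medium is read by HTRF and IC50 derived.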

UniProt Q16552, sequence (Q16552 with tags, fused parts or gaps K93Q): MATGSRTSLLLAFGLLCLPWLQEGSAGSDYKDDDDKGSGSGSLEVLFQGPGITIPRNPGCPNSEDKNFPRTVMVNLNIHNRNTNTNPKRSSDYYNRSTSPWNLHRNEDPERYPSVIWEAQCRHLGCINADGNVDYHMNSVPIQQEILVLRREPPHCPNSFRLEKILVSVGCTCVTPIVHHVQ

Row | Structure (SMILES) | IC50 [1] [µM] | IC50 [2] [µM]
1 | CC(C)n1nccc1C(=O)N[C@H](c1cn2ncc([C@H](NC(=O)CC(C)(C)C(F)(F)F)C3CC3)cc2n1)C1CCC(F)(F)CC1 [Example 254, N—((S)-(7-((R)-Cyclopropyl(4,4,4-trifluoro-3,3-dimethylbutanamido)methyl)imidazo[1,2-b]pyridazin-2-yl)(4,4-difluorocyclohexyl)methyl)-1-isopropyl-1H-pyrazole-5-carboxamide] | 0.29 | 0.2
2 | Cc1nonc1C(=O)N[C@H](c1cn2ncc([C@H](NC(=O)CCC(C)(F)F)C3CC3)cc2n1)C1CCC(F)(F)CC1 [Example 259, N—((S)-(7-((R)-Cyclopropyl(4,4-difluoropentanamido)methyl)imidazo[1,2-b]pyridazin-2-yl)(4,4-difluorocyclohexyl)methyl)-4-methyl-1,2,5-oxadiazole-3-carboxamide] | 0.12 | 0.62
3 | CC(C)n1nccc1C(=O)N[C@H](c1cn2ncc([C@H](NC(=O)CCC(C)(F)F)C3CC3)cc2n1)C1CCC(F)(F)CC1 [Example 260, N—((S)-(7-((R)-Cyclopropyl(4,4-difluoropentanamido)methyl)imidazo[1,2-b]pyridazin-2-yl)(4,4-difluorocyclohexyl)methyl)-1-isopropyl-1H-pyrazole-5-carboxamide] | 0.12 | 0.18
4 | CC(C)n1nccc1C(=O)N[C@H](c1cn2ncc([C@H](NC(=O)CC(C)(F)F)C3CC3)cc2n1)C1CCC(F)(F)CC1 [Example 261, N—((S)-(7-((R)-Cyclopropyl(3,3-difluorobutanamido)methyl)imidazo[1,2-b]pyridazin-2-yl)(4,4-difluorocyclohexyl)methyl)-1-isopropyl-1H-pyrazole-5-carboxamide] | 0.13 | 0.43
5 | CC(CC(=O)N[C@@H](c1cnn2cc([C@@H](NC(=O)c3ccnn3C(C)C)C3CCC(F)(F)CC3)nc2c1)C1CC1)C(F)F (stereo partly drawn) [Example 262, N-((1S)-(7-((1R)-Cyclopropyl(4,4-difluoro-3-methylbutanamido)methyl)imidazo[1,2-b]pyridazin-2-yl)(4,4-difluorocyclohexyl)methyl)-1-isopropyl-1H-pyrazole-5-carboxamide] | 0.12 | 0.12
6 | Cc1nonc1C(=O)N[C@H](c1cn2ncc([C@H](NC(=O)CC(C)(F)F)C3CC3)cc2n1)C1CCC(F)(F)CC1 [Example 263, N—((S)-(7-((R)-Cyclopropyl(3,3-difluorobutanamido)methyl)imidazo[1,2-b]pyridazin-2-yl)(4,4-difluorocyclohexyl)methyl)-4-methyl-1,2,5-oxadiazole-3-carboxamide] | 0.21 | 1.8
7 | CC(C)n1nccc1C(=O)N[C@H](c1cn2ncc([C@H](NC(=O)C34CC(F)(C3)C4)C3CC3)cc2n1)C1CCC(F)(F)CC1 [Example 268, N—((S)-(7-((R)-Cyclopropyl(3-fluorobicyclo[1.1.1]pentane-1-carboxamido)methyl)imidazo[1,2-b]pyridazin-2-yl)(4,4-difluorocyclohexyl)methyl)-1-isopropyl-1H-pyrazole-5-carboxamide] | 0.75 | 3
8 | Cc1nonc1C(=O)N[C@H](c1cn2ncc([C@H](NC(=O)C34CC(F)(C3)C4)C3CC3)cc2n1)C1CCC(F)(F)CC1 [Example 269, N—((S)-(7-((R)-Cyclopropyl(3-fluorobicyclo[1.1.1]pentane-1-carboxamido)methyl)imidazo[1,2-b]pyridazin-2-yl)(4,4-difluorocyclohexyl)methyl)-4-methyl-1,2,5-oxadiazole-3-carboxamide] | 2 | 20
9 | Cc1nonc1C(=O)N[C@H](c1cn2ncc([C@H](NC(=O)CC34CC(F)(C3)C4)C3CC3)cc2n1)C1CCC(F)(F)CC1 [Example 272, N—((S)-(7-((R)-Cyclopropyl(2-(3-fluorobicyclo[1.1.1]pentan-1-yl)acetamido)methyl)imidazo[1,2-b]pyridazin-2-yl)(4,4-difluorocyclohexyl)methyl)-4-methyl-1,2,5-oxadiazole-3-carboxamide] | 0.086 | 0.29
10 | CC(C)n1nccc1C(=O)N[C@H](c1cn2ncc([C@H](NC(=O)CC34CC(F)(C3)C4)C3CC3)cc2n1)C1CCC(F)(F)CC1 [Example 273, N—((S)-(7-((R)-Cyclopropyl(2-(3-fluorobicyclo[1.1.1]pentan-1-yl)acetamido)methyl)imidazo[1,2-b]pyridazin-2-yl)(4,4-difluorocyclohexyl)methyl)-1-isopropyl-1H-pyrazole-5-carboxamide] | 0.16 | 0.071
11 | CC(C)n1nccc1C(=O)N[C@H](c1cn2ncc([C@H](NC(=O)COC(F)F)C3CC3)cc2n1)C1CCC(F)(F)CC1 [Example 274, N—((S)-(7-((R)-Cyclopropyl(2-(difluoromethoxy)acetamido)methyl)imidazo[1,2-b]pyridazin-2-yl)(4,4-difluorocyclohexyl)methyl)-1-isopropyl-1H-pyrazole-5-carboxamide] | 0.33 | 0.95
12 | CC(C)n1nccc1C(=O)N[C@H](c1cn2ncc([C@H](NC(=O)CC3CCCC3(F)F)C3CC3)cc2n1)C1CCC(F)(F)CC1 (stereo partly drawn) [Example 275, N-((1S)-(7-((1R)-Cyclopropyl(2-(2,2-difluorocyclopentyl)acetamido)methyl)imidazo[1,2-b]pyridazin-2-yl)(4,4-difluorocyclohexyl)methyl)-1-isopropyl-1H-pyrazole-5-carboxamide] | 0.17 | 0.15
13 | CC(C)n1nccc1C(=O)N[C@H](c1cn2ncc([C@H](NC(=O)COC(F)(F)F)C3CC3)cc2n1)C1CCC(F)(F)CC1 [Example 276, N—((S)-(7-((R)-Cyclopropyl(2-(trifluoromethoxy)acetamido)methyl)imidazo[1,2-b]pyridazin-2-yl)(4,4-difluorocyclohexyl)methyl)-1-isopropyl-1H-pyrazole-5-carboxamide] | 0.15 | 0.14
14 | Cc1nonc1C(=O)N[C@H](c1cn2ncc([C@H](NC(=O)COC(F)(F)F)C3CC3)cc2n1)C1CCC(F)(F)CC1 [Example 277, N—((S)-(7-((R)-Cyclopropyl(2-(trifluoromethoxy)acetamido)methyl)imidazo[1,2-b]pyridazin-2-yl)(4,4-difluorocyclohexyl)methyl)-4-methyl-1,2,5-oxadiazole-3-carboxamide] | 0.18 | 0.69
15 | Cc1nonc1C(=O)N[C@H](c1cn2ncc([C@H](NC(=O)COC(F)F)C3CC3)cc2n1)C1CCC(F)(F)CC1 [Example 278, N—((S)-(7-((R)-Cyclopropyl(2-(difluoromethoxy)acetamido)methyl)imidazo[1,2-b]pyridazin-2-yl)(4,4-difluorocyclohexyl)methyl)-4-methyl-1,2,5-oxadiazole-3-carboxamide] | 1.1 | 2.5
16 | CC(C)c1nonc1C(=O)N[C@H](c1cn2ncc([C@H](NC(=O)CC34CC(F)(C3)C4)C3CC3)cc2n1)C1CCC(F)(F)CC1 [Example 279, N—((S)-(7-((R)-Cyclopropyl(2-(3-fluorobicyclo[1.1.1]pentan-1-yl)acetamido)methyl)imidazo[1,2-b]pyridazin-2-yl)(4,4-difluorocyclohexyl)methyl)-4-isopropyl-1,2,5-oxadiazole-3-carboxamide] | 0.036 | 0.064
